Laboratory results: PubChem BioAssay (NCI)
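All cell lines were grown in 96-well plates and treated with compound for 48 hours. GI50 is the concentration that inhibits growth by half. The concentration for full growth arrest is given as TGI.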

Columns and labels:
Experiment in all cases: inhibition of tumour cell growth, NCI panel, 48 h
786-0 renal = test system: 786-0 renal
A498 renal = test system: A498 renal
A549 NSCLC = test system: A549 NSCLC
ACHN renal = test system: ACHN renal
BT-549 breast = test system: BT-549 breast
CAKI-1 renal = test system: CAKI-1 renal
CCRF-CEM leukemia = test system: CCRF-CEM leukemia
COLO 205 colon = test system: COLO 205 colon
DU-145 prostate = test system: DU-145 prostate
EKVX NSCLC = test system: EKVX NSCLC
HCC-2998 colon = test system: HCC-2998 colon
HCT-116 colon = test system: HCT-116 colon
HCT-15 colon = test system: HCT-15 colon
HL-60(TB) leukemia = test system: HL-60(TB) leukemia
HOP-62 NSCLC = test system: HOP-62 NSCLC
HOP-92 NSCLC = test system: HOP-92 NSCLC
HS 578T breast = test system: HS 578T breast
HT29 colon = test system: HT29 colon
IGROV1 ovarian = test system: IGROV1 ovarian
K-562 leukemia = test system: K-562 leukemia
KM12 colon = test system: KM12 colon
LOX IMVI melanoma = test system: LOX IMVI melanoma
M14 melanoma = test system: M14 melanoma
MALME-3M melanoma = test system: MALME-3M melanoma
MCF7 breast = test system: MCF7 breast
MDA-MB-231 breast = test system: MDA-MB-231 breast
MDA-MB-435 = test system: MDA-MB-435
MOLT-4 leukemia = test system: MOLT-4 leukemia
NCI-H226 lung = test system: NCI-H226 lung
NCI-H23 lung = test system: NCI-H23 lung
NCI-H460 lung = test system: NCI-H460 lung
NCI-H522 lung = test system: NCI-H522 lung
NCI/ADR-RES ovarian = test system: NCI/ADR-RES ovarian
OVCAR-3 ovarian = test system: OVCAR-3 ovarian
OVCAR-4 ovarian = test system: OVCAR-4 ovarian
OVCAR-5 ovarian = test system: OVCAR-5 ovarian
OVCAR-8 ovarian = test system: OVCAR-8 ovarian
PC-3 prostate = test system: PC-3 prostate
RPMI-8226 leukemia = test system: RPMI-8226 leukemia
RXF 393 renal = test system: RXF 393 renal
SF-268 CNS = test system: SF-268 CNS
SF-295 CNS = test system: SF-295 CNS
SF-539 CNS = test system: SF-539 CNS
SK-MEL-2 melanoma = test system: SK-MEL-2 melanoma
SK-MEL-28 melanoma = test system: SK-MEL-28 melanoma
SK-MEL-5 melanoma = test system: SK-MEL-5 melanoma
SK-OV-3 ovarian = test system: SK-OV-3 ovarian
SN12C renal = test system: SN12C renal
SNB-19 CNS = test system: SNB-19 CNS
SNB-75 CNS = test system: SNB-75 CNS
SR leukemia = test system: SR leukemia
SW-620 colon = test system: SW-620 colon
T-47D breast = test system: T-47D breast
TK-10 renal = test system: TK-10 renal
U251 CNS = test system: U251 CNS
UACC-257 melanoma = test system: UACC-257 melanoma
UACC-62 melanoma = test system: UACC-62 melanoma
UO-31 renal = test system: UO-31 renal

## Cc1ccc(C(=Nc2ccccc2)N=P(c2ccccc2)(c2ccccc2)c2ccccc2)cc1
786-0 renal
  GI50: 1710 nM
  TGI: 4290 nM
A498 renal
  GI50: 1720 nM
  TGI: 5320 nM
A549 NSCLC
  GI50: 1430 nM
  TGI: 15000 nM
ACHN renal
  GI50: 1340 nM
BT-549 breast
  GI50: 1540 nM
  TGI: 3960 nM
CAKI-1 renal
  GI50: 1820 nM
CCRF-CEM leukemia
  GI50: 2510 nM
  TGI: 6500 nM
COLO 205 colon
  GI50: 833 nM
  TGI: 2320 nM
DU-145 prostate
  GI50: 2090 nM
EKVX NSCLC
  GI50: 1440 nM
HCC-2998 colon
  GI50: 1220 nM
  TGI: 3720 nM
HCT-116 colon
  GI50: 986 nM
  TGI: 3920 nM
HCT-15 colon
  GI50: 1220 nM
HL-60(TB) leukemia
  GI50: 235 nM
  TGI: 593 nM
HOP-62 NSCLC
  GI50: 2140 nM
HOP-92 NSCLC
  TGI: 1400 nM
HS 578T breast
  GI50: 1480 nM
  TGI: 7840 nM
HT29 colon
  GI50: 1150 nM
  TGI: > 36800 nM
IGROV1 ovarian
  GI50: 621 nM
  TGI: 4960 nM
K-562 leukemia
  GI50: 4220 nM
  TGI: > 100000 nM
KM12 colon
  GI50: 1070 nM
  TGI: 4710 nM
LOX IMVI melanoma
  GI50: 949 nM
  TGI: 4280 nM
M14 melanoma
  GI50: 1810 nM
  TGI: 8770 nM
MALME-3M melanoma
  GI50: 288 nM
  TGI: 946 nM
MCF7 breast
  GI50: 1430 nM
  TGI: 4850 nM
MDA-MB-231 breast
  GI50: 2210 nM
  TGI: 7750 nM
MDA-MB-435
  GI50: 955 nM
  TGI: 3230 nM
MOLT-4 leukemia
  GI50: 328 nM
  TGI: 1290 nM
NCI-H226 lung
  GI50: 1570 nM
  TGI: 9380 nM
NCI-H23 lung
  GI50: 3110 nM
  TGI: 12500 nM
NCI-H460 lung
  GI50: 1220 nM
  TGI: 4230 nM
NCI-H522 lung
  GI50: 1440 nM
  TGI: 9730 nM
NCI/ADR-RES ovarian
  GI50: 3610 nM
OVCAR-3 ovarian
  GI50: 1120 nM
OVCAR-4 ovarian
  GI50: 1530 nM
  TGI: > 31000 nM
OVCAR-5 ovarian
  GI50: 2980 nM
OVCAR-8 ovarian
  GI50: 3340 nM
  TGI: > 100000 nM
PC-3 prostate
  GI50: 1740 nM
  TGI: 4040 nM
RPMI-8226 leukemia
  GI50: 1180 nM
  TGI: 2860 nM
RXF 393 renal
  GI50: 695 nM
  TGI: 2520 nM
SF-268 CNS
  GI50: 1790 nM
SF-295 CNS
  GI50: 875 nM
  TGI: 7120 nM
SF-539 CNS
  GI50: 2180 nM
  TGI: 8680 nM
SK-MEL-2 melanoma
  GI50: 1310 nM
  TGI: 5440 nM
SK-MEL-28 melanoma
  GI50: 1630 nM
  TGI: 10000 nM
SK-MEL-5 melanoma
  GI50: 739 nM
  TGI: 1930 nM
SK-OV-3 ovarian
  GI50: 1980 nM
  TGI: 5220 nM
SN12C renal
  GI50: 1410 nM
  TGI: 9000 nM
SNB-19 CNS
  GI50: 2120 nM
SNB-75 CNS
  GI50: 2440 nM
  TGI: 14800 nM
SR leukemia
  GI50: 1670 nM
  TGI: 14900 nM
SW-620 colon
  GI50: 1260 nM
T-47D breast
  GI50: 1240 nM
TK-10 renal
  GI50: 1180 nM
  TGI: 4140 nM
U251 CNS
  GI50: 1150 nM
UACC-257 melanoma
  GI50: 1320 nM
  TGI: 3740 nM
UACC-62 melanoma
  GI50: 1190 nM
  TGI: 5070 nM
UO-31 renal
  GI50: 1320 nM
  TGI: 3800 nM
